From patent publication EP4768499A1, “MACROCYCLIC PEPTIDE COMPOUND HAVING CELL MEMBRANE PERMEABILITY AND METABOLIC STABILITY, AND LIBRARY CONTAINING SAME” (Chugai Seiyaku Kabushiki Kaisha, priority 2023, dated 2025)
Read-outs that look alike come from different tables or passages of the source. Starred links: 1 amine or outer side, 2 acyl side, 3 side chain; linkers in the order of their positions; H or OH if unused. Non-standard residues stand in square brackets, D forms with d. Residues, ends and D or L forms follow the SMILES beside them. *: point of attachment. NMedβ3hAla = C[C@H](CC(=O)[*:2])N(C)[*:1]; NMeF = CN[C@@H](Cc1ccccc1)C(=O)O; NMeI = CC[C@H](C)[C@H](NC)C(=O)O; NMeT = CN[C@H](C(=O)O)[C@@H](C)O; hPhe = N[C@@H](CCc1ccccc1)C(=O)O; NMeβAla = CN(CCC(=O)[*:2])[*:1]; NMeL = CN[C@@H](CC(C)C)C(=O)O; NMeV = CN[C@H](C(=O)O)C(C)C; d(β3hA) = C[C@@H](N)CC(=O)O; NMeAbu = CC[C@H](NC)C(=O)O; Abu = CC[C@H](N)C(=O)O; Sar = CNCC(=O)O; tBu = CC(C)(C)*

Columns and labels:
[1] = Metabolic stability test: liver microsomal stability assay; format: in vitro ADME, mouse; conditions: for microsomal CLint at 1 µM: male, pH 7.4, presence of NADPH, read-out: Mouse Hepatic Microsome CLh,int NADPH(+)
[2] = Mouse PK test: plasma concentration after intravenous or oral administration; format: in vivo, mice (C57BL/6J); conditions: C57BL/6J
Method: We evaluated the plasma concentration changes after intravenous or oral administration of four types of peptides that satisfy these conditions to mice.
To male mice (C57BL/6J, 10 weeks old, purchased from Charles River Laboratories Japan, Inc.: 3 mice per group), the compound was administered intravenously at a dose of 1 mg/kg or orally at a dose of 50 mg/kg, and blood was collected from the jugular vein over time up to 24 hours after administration. The collected blood was dispensed into tubes that were pre-treated with heparin as an anticoagulant. Plasma was separated from the blood by centrifugation, and after deproteinization with acetonitrile, the plasma concentration of the compound was measured with an LC/MS/MS device (XEVO TQ-XS, manufactured by Waters Corporation).

[3] = test system: Caco-2 cells; assay: Membrane permeability test using Caco-2 cells with preincubation; format: in vitro ADME
[4] = as above; format: in vitro ADME; conditions: Caco-2
[5] = mouse liver microsomes 0.5 mg protein/mL, compound 1 µM
[6] = mouse liver microsomes 0.5 mg protein/mL, compound 1 µM, absence of NADPH
[7] = plasma, male mice, intravenous administration, 1 mg/kg, read-out: AUCinf
[8] = plasma, male mice, intravenous administration, 1 mg/kg, read-out: CL
[9] = plasma, male mice, intravenous administration, 1 mg/kg, read-out: Vss
[10] = plasma, male mice, intravenous administration, 1 mg/kg, read-out: t1/2 (converted)
[11] = plasma, male mice, oral 50 mg/kg vs intravenous 1 mg/kg, bioavailability, read-out: F
[12] = plasma, male mice, oral administration, 50 mg/kg, read-out: AUCinf
[13] = plasma, male mice, oral administration, 50 mg/kg, read-out: Cmax
[14] = plasma, male mice, oral administration, 50 mg/kg, read-out: Tmax
[15] = plasma, male mice, oral administration, 50 mg/kg, read-out: t1/2 (converted)
[16] = Caco-2 cells, preincubation 20 to 24 hours, apical FaSSIF/HBSS 1% DMSO pH 6.0, basal HBSS 4% BSA pH 7.4, basal sample at 180 minutes
[17] = preincubation 20 to 24 hours, Apical FaSSIF/HBSS pH 6.0, Basal HBSS 4% BSA pH 7.4, 180 minutes, read-out: Caco2 Papp

SMILES | microsomal CLint at 1 µM [1, 5] [µL/min/mg] | Mouse Hepatic Microsome CLh,int NADPH(-) [1, 6] [µL/min/mg Protein] | AUC(0-inf) [2, 7] [ng·h/mL] | clearance [2, 8] [mL/min/kg] | Vd [2, 9] [L/kg] | half-life [2, 10] [h] | bioavailability [2, 11] [%] | AUC(0-inf) [2, 12] [ng·h/mL] | Cmax [2, 13] [ng/mL] | Tmax [2, 14] [h] | half-life [2, 15] [h] | Caco2 Papp (10^-6 cm/sec) [3, 16] | Papp A→B [4, 17] [×10⁻⁶ cm/s] | other results
CC[C@H](C)[C@H]1C(=O)N[C@@H](CC(C)C)C(=O)N(C)CC(=O)N(C)[C@@H](CC(C)C)C(=O)N[C@@H](CC(C)C)C(=O)N(C)[C@H](C)CC(=O)N(C)[C@@H](CC(C)C)C(=O)N(C)CCC(=O)N(C)[C@@H](CC(C)C)C(=O)N[C@@H](COC(C)(C)C)C(=O)N(C)[C@@H](Cc2ccccc2)C(=O)N(C)CCC(=O)N(C)[C@@H](Cc2ccccc2)C(=O)N1C [pd144] (cyclo(L[Sar][NMeL]L[NMedβ3hAla][NMeL][NMeβAla][NMeL]S(tBu)[NMeF][NMeβAla][NMeF][NMeI])) | – | – | – | – | – | – | – | – | – | – | – | – | – | Mouse Hepatic Microsome CLh,int NADPH(-) [1]: 34.0 µL/min/mg Protein; AUC(0-inf) ([2]; male, in vivo, iv, 1 mg/kg): 3500 ng·h/mL; Vd ([2]; male, in vivo, iv, 1 mg/kg): 1.6 L/kg; clearance ([2]; male, in vivo, iv, 1 mg/kg): 4.9 mL/min/kg; half-life ([2]; male, in vivo, iv, 1 mg/kg): 5.3 h; bioavailability ([2]; male, in vivo, po): 40%; AUC(0-inf) ([2]; male, in vivo, po, 50 mg/kg): 71000 ng·h/mL; Cmax ([2]; male, in vivo, po, 50 mg/kg): 7000 ng/mL; Tmax ([2]; male, in vivo, po, 50 mg/kg): 1.3 h; half-life ([2]; male, in vivo, po, 50 mg/kg): 9.7 h; Caco2 Papp (10^-6 cm/sec) ([3]; Caco-2): 1.28 10^-6 cm/sec; Papp A→B [4]: 1.28 ×10⁻⁶ cm/s
CC[C@H](C)[C@@H]1NC(=O)[C@H](CC(C)C)N(C)C(=O)C[C@@H](C)NC(=O)[C@H](C(C)C)N(C)C(=O)[C@H](COC(C)(C)C)NC(=O)[C@H](CC)N(C)C(=O)[C@H](Cc2ccccc2)N(C)C(=O)[C@H](CC(C)C)NC(=O)[C@@H]2CCCN2C(=O)[C@H]([C@@H](C)O)N(C)C(=O)[C@H](CC(C)C)N(C)C(=O)[C@H](CC)N(C)C(=O)[C@H](C(C)C)NC(=O)[C@H](CC(C)C)N(C)C1=O [pd057] (cyclo(I[NMeL]V[NMeAbu][NMeL][NMeT]PL[NMeF][NMeAbu]S(tBu)[NMeV][d(β3hA)][NMeL])) | 50.4 | 44.8 | 1200 | 14 | 11 | 12 | 33 | 20000 | 2200 | 2.7 | 6.6 | 1.16 10^-6 cm/sec | 1.16 | –
CC[C@@H]1NC(=O)[C@H](CC(C)C)N(C)C(=O)[C@H](COC(C)(C)C)NC(=O)[C@H]([C@@H](C)CC)N(C)C(=O)[C@H](CCc2ccccc2)NC(=O)[C@H](Cc2ccccc2)N(C)C(=O)[C@H](C(C)C)NC(=O)[C@H](CC(C)C)N(C)C(=O)[C@H](CC(C)C)NC(=O)CCN(C)C(=O)C[C@@H](C)N(C)C(=O)CN(C)C(=O)[C@H](CC(C)C)N(C)C(=O)[C@@H]2CCCN2C1=O [pd065] (cyclo([Abu]P[NMeL][Sar][NMedβ3hAla][NMeβAla]L[NMeL]V[NMeF][hPhe][NMeI]S(tBu)[NMeL])) | 41.7 | 40.2 | – | – | – | – | – | – | – | – | – | 0.54 10^-6 cm/sec | 0.54 | AUC(0-inf) ([2]; in vivo, male mice, intravenous administration, 1 mg/kg, read-out: AUCinf): 8700 ng·h/mL; clearance ([2]; in vivo, male mice, intravenous administration, 1 mg/kg, read-out: CL): 1.9 mL/min/kg; Vd ([2]; in vivo, male mice, intravenous administration, 1 mg/kg, read-out: Vss): 0.57 L/kg; half-life ([2]; in vivo, male mice, intravenous administration, 1 mg/kg, read-out: t1/2 (converted)): 5.4 h; bioavailability ([2]; in vivo, male mice, oral 50 mg/kg vs intravenous 1 mg/kg, bioavailability, read-out: F): 26%; AUC(0-inf) ([2]; in vivo, male mice, oral administration, 50 mg/kg, read-out: AUCinf): 110000 ng·h/mL; Cmax ([2]; in vivo, male mice, oral administration, 50 mg/kg, read-out: Cmax): 11000 ng/mL; Tmax ([2]; in vivo, male mice, oral administration, 50 mg/kg, read-out: Tmax): 2.7 h; half-life ([2]; in vivo, male mice, oral administration, 50 mg/kg, read-out: t1/2 (converted)): 5.8 h
CC[C@@H]1NC(=O)[C@H](CC(C)C)N(C)C(=O)[C@H]([C@@H](C)CC)NC(=O)[C@H](CC(C)C)N(C)C(=O)C[C@@H](C)NC(=O)[C@H](C(C)C)N(C)C(=O)[C@H](CC(C)C)NC(=O)[C@H](CC)N(C)C(=O)[C@H](Cc2ccccc2)N(C)C(=O)[C@@H]2CCCN2C(=O)[C@H](CC(C)C)NC(=O)[C@H]([C@@H](C)O)N(C)C(=O)[C@H](CC(C)C)N(C)C1=O [pd135] (cyclo([Abu][NMeL][NMeT]LP[NMeF][NMeAbu]L[NMeV][d(β3hA)][NMeL]I[NMeL])) | 39.5 | 28.4 | 10000 | 1.7 | 0.81 | 6.4 | 16 | 79000 | 7000 | 1.7 | 7.6 | 1.95 10^-6 cm/sec | 1.95 | –
CC[C@H](C)[C@@H]1NC(=O)[C@H](CC(C)C)N(C)C(=O)C[C@@H](C)NC(=O)[C@H](C(C)C)N(C)C(=O)[C@H](COC(C)(C)C)NC(=O)[C@H](CC)N(C)C(=O)[C@H](Cc2ccccc2)N(C)C(=O)[C@H](CC(C)C)NC(=O)[C@@H]2CCCN2C(=O)[C@H]([C@@H](C)O)N(C)C(=O)[C@H](CC(C)C)N(C)C(=O)[C@H](CC)N(C)C(=O)[C@H](CC(C)C)N(C)C1=O [pd139] (cyclo(I[NMeL][NMeAbu][NMeL][NMeT]PL[NMeF][NMeAbu]S(tBu)[NMeV][d(β3hA)][NMeL])) | 32.3 | 28.2 | – | – | – | – | – | – | – | – | – | 1.24 10^-6 cm/sec | 1.24 | –
